Test results taken from patent US20180116993A1, “MODULATORS OF FARNESOID X RECEPTOR AND METHODS FOR THE USE THEREOF” (XIAMEN UNIVERSITY, priority 2015, published 2018).
Marks after values point to notes of the source that are not given here.

Assays:
db/db mice = test: Serum/blood metabolic parameters in high-fat diet fed db/db mice; format: in vivo, mouse; conditions: 50 mg/kg for 7 days
Excerpt: (§1) KK-Ay mice (KK/Upj-Ay/J) are animal models with moderate obese and diabetes with insulin resistance. KK-Ay mice develop hyperglycemia, hyperinsulinemia, glucose intolerance and obesity as well as fat accumulation in liver by eight weeks of age. Pancreatic islets are hypertrophied and the β-cells are degranulated. db/db mice (BKS.Cg-Dockr+/+ Lepr^db/Jnju) are animal models of type II diabetes. They have the phenotype of insulin resistance. These model mice were used to detect the functions of our compounds on metabolic diseases.
8-10 weeks age mice were maintained as example 4, and fed with high-fat diet (Research Diets, D12492). Mice were i.p. injected with compounds once daily for 7, 10, 11 or 14 days as indicated in each table. After the last compounds injection, mice were fasted for 6 hours with free access to water, and then sacrificed. Part of each liver was fixed in 4% paraformaldehyde for H&E staining, and other liver tissues were stored in liquid nitrogen for enzyme activity measurement and gene expression analysis by RT-PCR. The serums were collected to measure metabolic parameters, including serum glucose, insulin, cholesterol, free fatty acid (FFA) and triglyceride levels. Serum glucose was analyzed using glucose oxidase method (Applygen, Beijing, China). The blood glucose in Table 11 was measured with Berenger blood glucose test strips (B/BRAUN, German) from blood by cutting mice tail after the 6th injection and following fast for 16 hours. Serum cholesterol and FFA were analyzed using Cholesterol Assay Kit and FFA Assay Kit (Bioassay Systems, USA; Nanjing Jiancheng Bioengineering Institute, China; FFA ELISA, R&D, USA), respectively. Serum triglyceride was analyzed using Triglyceride Assay Kit (Bioassay Systems, USA; WAKO Chemicals Inc., Japan; Applygen, Beijing, China). Liver triglyceride was analyzed using Tissue triglyceride assay kit (Applygen, Beijing, China). Serum insulin levels were measured by the Ultra Sensitive Mouse Insulin ELISA Kit (Crystal Chem. Inc., USA). RNA was isolated using Tissue RNA kit (Omega Bio-Tek, GA). The first strand cDNA were obtained by TAKARA reverse transcription kit. Real-time quantitative PCR were performed on a CFX96™ Real-Time PCR Detection System (Bio-Rad) using SYBR Premix Ex Taq™ (TAKARA). Relative mRNA expression levels were normalized to actin levels. […]

[1] = test system: mice with APAP-induced liver injury; test: Acetaminophen (APAP)-induced liver injury in mouse; format: in vivo
Excerpt: Methods: Acetaminophen (APAP)-induced liver injury in mouse is a commonly used model to study drugs protecting liver. Overdose of APAP causes liver injury by inducing the production of reactive oxygen species and reactive nitrogen species, and excessive consumption of reductive substances such as antioxidant glutathione (GSH), leading to the reduction of GSH in vivo, and the following upregulation of the activities of the aspartate aminotransferase (AST), the alanine aminotransferase (ALT) and the lactate dehydrogenase (LDH), which will result in liver inflammation and necrosis. In this example, the APAP-induced liver injury was used to detect the protection and repair functions of our compounds in liver injury.
One-year or 8-week age mice were maintained under environmentally controlled conditions with free access to standard chow diet and water. Animal experiments were conducted in the barrier facility of the Laboratory Animal Center, Xiamen University, approved by the Institutional Animal Use and Care Committee of Xiamen University, China.
Compounds were solved with DMSO and then prepared to work concentration with 40% HBC (2-hydroxypropyl-β-cyclodextrin) in which the final work concentrations of compounds are 5 mg/kg body weight, 10 mg/kg or 20 mg/kg in 100 μl injection volume and the concentration of DMSO is 10%. Compounds were intraperitoneal (i.p.) injected once daily for five days. For Feroline and Tschimganine, one-year age mice were used in the experiment. For other compounds, 8-week age mice were used. […] For Tschimganine, 20 mg/kg dose of compound was administered to mice. For other compounds, 5 mg/kg dose of compounds were administered to mice. Six hours after the fifth injection, 500 mg/kg body weight of APAP solved in PBS was i.p. injected to the mice. 24 hours later, mice were sacrificed. Part of each liver was fixed in 4% paraformaldehyde, and the liver histology characterization was analyzed by haematoxylin and eosin (H&E) staining with paraffin-embedded sections by standard procedures. Other liver tissues were collected for detecting the GSH levels, and the mRNA expression of genes involved in liver repairing, such as GPX1 and UGT1a1, by RT-PCR. The serums were collected to measure enzymes activities including AST, ALT and LDH. For the synthetic derivatives, ALT and GSH were selected as indicating markers for the function of these compounds.

KK-Ay mice = test: Serum metabolic parameters in high-fat diet fed diabetic KK-Ay mice; format: in vivo, mouse; conditions: 10 mg/kg for 14 days, vehicle 253 ± 11
Excerpt: as §1
8-10 weeks age mice were maintained as example 4, and fed with high-fat diet (Research Diets, D12492). Mice were i.p. injected with compounds once daily for 7, 10, 11 or 14 days as indicated in each table. After the last compounds injection, mice were fasted for 6 hours with free access to water, and then sacrificed. Part of each liver was fixed in 4% paraformaldehyde for H&E staining, and other liver tissues were stored in liquid nitrogen for enzyme activity measurement and gene expression analysis by RT-PCR. The serums were collected to measure metabolic parameters, including serum glucose, insulin, cholesterol, free fatty acid (FFA) and triglyceride levels. Serum glucose was analyzed using glucose oxidase method (Applygen, Beijing, China). The blood glucose in Table 11 was measured with Berenger blood glucose test strips (B/BRAUN, German) from blood by cutting mice tail after the 6th injection and following fast for 16 hours. Serum cholesterol and FFA were analyzed using Cholesterol Assay Kit and FFA Assay Kit (Bioassay Systems, USA; Nanjing Jiancheng Bioengineering Institute, China; FFA ELISA, R&D, USA), respectively. Serum triglyceride was analyzed using Triglyceride Assay Kit (Bioassay Systems, USA; WAKO Chemicals Inc., Japan; Applygen, Beijing, China). Liver triglyceride was analyzed using Tissue triglyceride assay kit (Applygen, Beijing, China). Serum insulin levels were measured by the Ultra Sensitive Mouse Insulin ELISA Kit (Crystal Chem. Inc., USA). RNA was isolated using Tissue RNA kit (Omega Bio-Tek, GA). The first strand cDNA were obtained by TAKARA reverse transcription kit. Real-time quantitative PCR were performed on a CFX96™ Real-Time PCR Detection System (Bio-Rad) using SYBR Premix Ex Taq™ (TAKARA). Relative mRNA expression levels were normalized to actin levels.

[2] = test system: mouse embryonic fibroblasts (MEFs); test: GSH levels in mouse embryonic fibroblasts (MEFs); format: cell-based; conditions: 20 μM, 24 hours, vehicle 31 ± 6
Excerpt: The reduced glutathione (GSH) is a natural antioxidant in cells and plays important function responding the oxidative stress. The GSH levels will decrease with age, infection, poisoning, exogenous toxins and oxidative stress. The Sestrin2 (Sesn2) gene encodes a conserved antioxidant protein that is induced on oxidative stress and protects cells against reactive oxygen species. SOD2 is an antioxidant enzyme. The antioxidants are defense system for organ to prevent damage by free radical. In this example, the mouse embryonic fibroblasts (MEFs) were treated with compounds for 24 hours, and the GSH levels were analyzed using GSH kit (Nanjing Jiancheng Engineering Institute, China). […] Correspondingly, the expression levels of the antioxidant genes such as SOD2 and SESN2 increased in compounds treated MEFs (Table 26 and Table 28).

[3] = Clearance of superoxide anion radical in vitro; conditions: method of CN 102813683 B, p<0.01

Substance: Hedragonic acid
- Serum Insulin (ng/ml) (db/db mice; vehicle 12 ± 3): 4.65 ± 0.2^b ng/ml
- Serum Glucose (mg/dl) (db/db mice; vehicle 521 ± 54): 334 ± 50^a mg/dl
- Liver morphology by H&E staining (FIG. 1) ([1]; 10 mg/kg (Tschimganine 20 mg/kg) i.p. five days, then APAP, compared to severe liver injury in control group): almost normal liver morphology
- expression levels of GPX1 and UGT1α1 in liver ([1]; mRNA by RT-PCR, vs vehicle control group, Table 5 (not given)): significantly upregulated
- activities of serum AST, ALT and LDH ([1]; vs vehicle control group, Table 5 (not given)): dramatically lower
- Serum Glucose (mg/dl) (KK-Ay mice): 161 ± 21^b mg/dl
- GSH (μM) [2]: 72 ± 9^a μM
- clearance rate to superoxide anion radical [3]: 58%±6.4%
